Reference: patent US5358937A, “Glycosyl phospholipid derivatives of nucleosides and their use as medicines” (priority 1989, dated 1994)
Several values for one entry are separate records, joined by “and”; a condition that tells them apart may be missing. Equal values may be shown once. Read-outs that look alike come from different tables or passages of the source.

Experiments:
[1] = system: HIV virus (isolate LAV1-BRU); assay: inhibition of the cytopathogenic effect (CPE) of the HIV virus toward a continuous line of T4 lymphocytes by colorimetric assay with MTT; format: cell-based
[2] = system: HIV virus; viral reverse transcriptase; assay: inhibition of viral replication by microassay of the enzymatic activity of the viral reverse transcriptase in CEM culture supernatants; format: cell-based; set-up: unit not given here
[3] = HPLC assay of AZT in the brain of mice after oral administration; format: in vivo, Swiss mouse; settings: for Phosphodiester detected by HPLC per gram of brain, mean (offset figure) / Phosphodiester detected by HPLC per gram of brain, individual value / Phosphotriester detected by HPLC per gram of brain, individual value: 25 mg/kg oral, 1 hour, CT 7625 0.64; for Phosphodiester detected by HPLC per gram of brain, mean (offset figure): AZT equivalent micromol per mouse: CT 6715 0.94, CT 6651 0.68; for Phosphodiester detected by HPLC per gram of brain, mean (offset figure) / Phosphodiester detected by HPLC per gram of brain, individual value: CT 7624 0.90; for Phosphodiester detected by HPLC per gram of brain, individual value: AZT equivalent micromol per mouse: CT 6715, CT 7626 0.94, CT 6651, CT 7627 0.68, 60 min; for Phosphodiester detected by HPLC per gram of brain, individual value / concentration at 1 h: 25 mg/kg; for Phosphotriester detected by HPLC per gram of brain, individual value: AZT equivalent micromol per mouse: CT 6651, CT 7627 0.68; for concentration at 1 h: mouse, brain, po, read-out: Phosphodiester detected by HPLC per gram of brain, individual value
Experimental: The assays are conducted on the Swiss mouse.
The compounds are dissolved in distilled water (or suspended in distilled water) before being administered by gavage; the assays are performed by administering each compound to 3 mice. The control consists of 3 mice receiving the equivalent of the vehicle, i.e. the same volume of distilled water as the treated mice. The brains are removed 1 hour after garage, homogenized in an acetonitrile-water (3/1) mixture, centrifuged and the supernatant is taken for the HPLC assay.
In a preliminary trial, favourable experimental conditions for the assays of the different compounds by HPLC are determined.
In the table which follows, each line corresponds to an assay series.

[4] = in vitro; settings: human, cem-c113 cells
[5] = 31P-NMR study of the interactions between the phosphotriesters and model membranes (transmembrane transport)
[6] = system: HIV virus (isolate LAV1-BRU); assay: selectivity index / protection index (CD50/ED50 ratio); format: cell-based
Source text: Determination of the selectivity index
The higher the difference between the CD50 and the ED50, the more useful will be the product. This difference is quantified by the selectivity index (the CD50/ED50 ratio).

[7] = Human immunodeficiency virus 1, CEM-c113, read-out: ED50 (protective dose 50%), D7 of culture, CEM-C113 cells
[8] = Human immunodeficiency virus 1, CEM-c113, read-out: ED50 (protective dose 50%), D11 of culture, CEM-C113 cells
[9] = Human immunodeficiency virus 1, CEM-c113, read-out: ED50 (protective dose 50%), D19 of culture, CEM-C113 cells
[10] = Human immunodeficiency virus 1, CEM-c113, read-out: ED50 (protective dose 50%), D22 of culture, CEM-C113 cells

EC50 [1, 7] [nM]	EC50 [1, 8] [nM]	EC50 [1, 9] [nM]	EC50 [1, 10] [nM]	SMILES	reverse transcriptase activity in culture supernatant ([2]; 0.2 uM, D7)	reverse transcriptase activity in culture supernatant ([2]; 0.2 uM, D11)	reverse transcriptase activity in culture supernatant ([2]; 0.2 uM, D18)	reverse transcriptase activity in culture supernatant ([2]; 0.2 uM, D19)	reverse transcriptase activity in culture supernatant ([2]; 0.2 uM, D22)	reverse transcriptase activity in culture supernatant ([2]; 0.2 uM, D26)	reverse transcriptase activity in culture supernatant ([2]; 1 uM, D7)	reverse transcriptase activity in culture supernatant ([2]; 1 uM, D11)	reverse transcriptase activity in culture supernatant ([2]; 1 uM, D18)	reverse transcriptase activity in culture supernatant ([2]; 1 uM, D19)	reverse transcriptase activity in culture supernatant ([2]; 1 uM, D22)	reverse transcriptase activity in culture supernatant ([2]; 1 uM, D26)	CC50 at 168 h [4] [nM]	CC50 at 264 h [4] [nM]	CC50 at 456 h [4] [nM]	CC50 at 528 h [4] [nM]	other results
< 200	< 200	< 200	800	Cc1cn([C@H]2C[C@H](N=[N+]=[N-])[C@@H](COP(=O)(O)OCCO[C@H]3O[C@H](CO)[C@@H](O)[C@H](O)[C@@H]3O)O2)c(=O)[nH]c1=O [CT 7624, 1ethoxy D-mannosyl 5'-(3'-azido) thymidinyl phosphate]	4400	2800	2600	24000	27000	70000	2800	1900	2200	12000	26000	55000	25000	> 25000	> 25000	> 25000	reverse transcriptase activity in culture supernatant ([2]; 5 uM, D7): 1670; reverse transcriptase activity in culture supernatant ([2]; 5 uM, D11): 1003; reverse transcriptase activity in culture supernatant ([2]; 5 uM, D18): 852; reverse transcriptase activity in culture supernatant ([2]; 5 uM, D19): 2700; reverse transcriptase activity in culture supernatant ([2]; 5 uM, D22): 5500; reverse transcriptase activity in culture supernatant ([2]; 5 uM, D26): 42000; reverse transcriptase activity in culture supernatant ([2]; 25 uM, D7): 1204; reverse transcriptase activity in culture supernatant ([2]; 25 uM, D11): 372; reverse transcriptase activity in culture supernatant ([2]; 25 uM, D18): 304; reverse transcriptase activity in culture supernatant ([2]; 25 uM, D19): 2100; reverse transcriptase activity in culture supernatant ([2]; 25 uM, D22): 500; reverse transcriptase activity in culture supernatant ([2]; 25 uM, D26): 1700; Phosphodiester detected by HPLC per gram of brain, mean (offset figure) [3]: 2.31 µg; Phosphodiester detected by HPLC per gram of brain, individual value [3]: 0.92 µg and 3.70 µg
< 200	1000	> 1000	> 1000	CCCCCCCCCCCCCCCCOP(=O)(OCCO[C@H]1O[C@H](CO)[C@@H](O)[C@H](O)[C@@H]1O)OC[C@H]1O[C@@H](n2cc(C)c(=O)[nH]c2=O)C[C@@H]1N=[N+]=[N-] (stereo partly drawn) [CT 7625, 1-ethoxy D-mannosyl hexadecyl 5'-(3'-azido) thymidinyl phosphate]	3900	2900	2400	25000	52000	61000	6000	6000	5500	47000	48000	64000	20000	28000	3400	24000	Phosphotriester detected by HPLC per gram of brain, individual value [3]: 0 µg; Phosphodiester detected by HPLC per gram of brain, mean (offset figure) [3]: 2.34 µg; Phosphodiester detected by HPLC per gram of brain, individual value [3]: 1.17 µg and 3.51 µg; interaction with / location in unilamellar vesicles (in words) [5]: found in the intravesicular aqueous phase
< 200	200	200	600	Cc1cn([C@H]2C[C@H](N=[N+]=[N-])[C@@H](COP(=O)(O)OC[C@H]3OC(O)[C@@H](O)[C@@H](O)[C@@H]3O)O2)c(=O)[nH]c1=O (stereo partly drawn) [CT 7626, 6-D-mannosyl-5'(3'-azido) thymidinyl phosphate]	3400	3000	1700	12000	27000	85000	2700	1300	1200	5000	15000	50000	> 25000	> 25000	24000	24000	reverse transcriptase activity in culture supernatant ([2]; 5 uM, D7): 1500; reverse transcriptase activity in culture supernatant ([2]; 5 uM, D11): 1000; reverse transcriptase activity in culture supernatant ([2]; 5 uM, D18): 1300; reverse transcriptase activity in culture supernatant ([2]; 5 uM, D19): 8000; reverse transcriptase activity in culture supernatant ([2]; 5 uM, D22): 12000; reverse transcriptase activity in culture supernatant ([2]; 5 uM, D26): 100000; reverse transcriptase activity in culture supernatant ([2]; 25 uM, D7): 1100; reverse transcriptase activity in culture supernatant ([2]; 25 uM, D11): 700; reverse transcriptase activity in culture supernatant ([2]; 25 uM, D18): 900; reverse transcriptase activity in culture supernatant ([2]; 25 uM, D19): 2200; reverse transcriptase activity in culture supernatant ([2]; 25 uM, D22): 900; reverse transcriptase activity in culture supernatant ([2]; 25 uM, D26): 900; concentration at 1 h [3]: 2050 ng/g
< 200	300	500	400	CCCCCCCCCCCCCCCCOP(=O)(OC[C@H]1OC(O)[C@@H](O)[C@@H](O)[C@@H]1O)OC[C@H]1O[C@@H](n2cc(C)c(=O)[nH]c2=O)C[C@@H]1N=[N+]=[N-] (stereo partly drawn) [CT 7627, 6-D-mannosyl hexadecyl 5'-(3'-azido)-thymidinyl phosphate]	4000	4700	1700	11000	24000	73000	2000	1100	500	1400	3900	20000	2600	2600	2500	25000	PROTECTION INDICES (P.I.), CD50/ED50 [6]: > 13; Phosphotriester detected by HPLC per gram of brain, individual value [3]: 0 µg; concentration at 1 h [3]: 2050 ng/g; interaction with / location in unilamellar vesicles (in words) [5]: interacts only with the external lipid layer of the unilamellar vesicles
< 200	–	–	–	Nc1ccn([C@H]2CC[C@@H](CO)O2)c(=O)n1 [ddC, dideoxycytidine, reference compound]	–	–	–	–	–	–	–	–	–	–	–	–	7000	400	< 200	< 200	PROTECTION INDICES (P.I.), CD50/ED50 ([6]; D7): > 35
< 200	700	800	> 25000	Cc1cn([C@H]2CC[C@@H](CO)O2)c(=O)[nH]c1=O [ddT, 2', 3'-dideoxy thymidine, reference compound]	–	–	–	–	–	–	3000	1500	750	1200	350	600	> 25000	< 25000	> 25000	> 25000	reverse transcriptase activity in culture supernatant ([2]; 5 uM, D7): 5000; reverse transcriptase activity in culture supernatant ([2]; 5 uM, D11): 2000; reverse transcriptase activity in culture supernatant ([2]; 5 uM, D18): 1400; reverse transcriptase activity in culture supernatant ([2]; 5 uM, D19): 5000; reverse transcriptase activity in culture supernatant ([2]; 5 uM, D22): 2100; reverse transcriptase activity in culture supernatant ([2]; 5 uM, D26): 5000; reverse transcriptase activity in culture supernatant ([2]; 25 uM, D7): 2500; reverse transcriptase activity in culture supernatant ([2]; 25 uM, D11): 1000; reverse transcriptase activity in culture supernatant ([2]; 25 uM, D18): 800; reverse transcriptase activity in culture supernatant ([2]; 25 uM, D19): 7000; reverse transcriptase activity in culture supernatant ([2]; 25 uM, D22): 4000; reverse transcriptase activity in culture supernatant ([2]; 25 uM, D26): 5000
